Laboratory results as given in US6653321B1, “Naphthylsulfonic acids and related compounds as glucose uptake agonists” (Telik, Inc., priority 1999, dated 2003).

Tests used:
[1] = molecular target: T1, β-kinase domain of the human insulin receptor (CKD) (Homo sapiens, UniProt P06213); assay: 32P-Cytoplasmic Kinase Domain (CKD) autophosphorylation assay; format: biochemical; settings: 32P incorporated into CKD band, percentage of the vehicle (DMSO) level; 10 minutes at room temperature; compound concentration not given
T1 construct: The complete β-kinase domain of the human insulin receptor (CKD); made in house
Protocol: The complete β-kinase domain of the human insulin receptor (CKD) was expressed in, and purified from, baculovirus. CKD (4.0 μg/mL), in a solution of 50 mM Tris.HCl, 2 mM MnCl2, 10 mM MgCl2 (50 μl final volume), was combined with […] ATP, and 5 μCi ^32P-ATP (3000 Ci/mmol.). A test compound, or the vehicle (DMSO), was added to a final DMSO concentration of 1%. The mixture was incubated for 10 minutes at room temperature. The reaction was terminated by the addition of 10 μl of 200 mM EDTA. A 30 μl volume was removed, mixed with 5 μl of 6×Laemmeli sodium dodecyl sulfate (SDS) treatment buffer, and heated to 94° C. for 5 minutes. A 20 μl aliquot was then run on an SDS-PAGE gel. The radioactivity incorporated into the CKD band is quantified by phosphorimaging of the gel, or scintillation counting of the excised bands.
The potency of a compound for increasing phosphorylation is expressed as a percentage of the vehicle level.

3T3 L1 fibroblasts = assay: Glucose transport activity (14C-2-deoxy-D-glucose uptake); format: cell-based; settings: Mus musculus; differentiated 3T3 L1 cells, insulin 5.6 nM; concentration giving increase in glucose transport generally 150% of the vehicle control
Protocol: 3T3 L1 fibroblasts (ATCC) were grown in Dulbecco's modified Eagle's medium (DMEM) with 10% fetal bovine serum (FBS, medium). The cells were plated at a density of 3×10^4 cells/well in 24-well plates. Two days after confluence was reached, the cells were treated for 3 days with 0.5 mM isobutylmethylxanthine (IBMX), 1 μM dexamethasone, supplemented with 1.7 μM insulin. The cells were then transferred to medium with 1.7 μM insulin for 2 more days. The cells were maintained in medium for an additional 4 days. Finally the cells were serum starved overnight in 0.1% bovine serum albumin (BSA) in DMEM.
The following day, the culture medium was replaced with 150 mM NaCl, 1.7 mM KCl, 0.9 mM CaCl2, 1.47 mM K2HPO4 (pH 7.4) to which was added either the experimental compounds, or their vehicle (DMSO). Insulin or its vehicle (0.01% BSA) was diluted in the assay buffer (containing test compound or vehicle, respectively) to a final concentration of 5.6 nM. After incubation for 30 min at 37° C. 5 μCi/mL ^14C-2-[…]-D-glucose was added, and the incubation was continued for additional 30 min at 37° C. The cells were then washed 3 times with ice-cold PBS/20 mM glucose and […] in 250 μl of lysis buffer (50 mM HEPES pH 7.6, 1% Triton X-100) for 30 min at room temperature. Radioactivity in the lysate was quantified by scintillation counting.
Once ^14C-2-deoxy-D-glucose is transported into the cell it is not released. Glucose transport is, therefore, proportional to the amount of radioactivity in the lysate. The concentration of compound necessary to produce an increase in glucose transport greater than the sum of the standard deviation of the vehicle control plus the largest standard deviation of a test sample (generally 150% of the vehicle control) was recorded as the EC (effective concentration).

T1 sequence (P06213 980-1382 limits assumed): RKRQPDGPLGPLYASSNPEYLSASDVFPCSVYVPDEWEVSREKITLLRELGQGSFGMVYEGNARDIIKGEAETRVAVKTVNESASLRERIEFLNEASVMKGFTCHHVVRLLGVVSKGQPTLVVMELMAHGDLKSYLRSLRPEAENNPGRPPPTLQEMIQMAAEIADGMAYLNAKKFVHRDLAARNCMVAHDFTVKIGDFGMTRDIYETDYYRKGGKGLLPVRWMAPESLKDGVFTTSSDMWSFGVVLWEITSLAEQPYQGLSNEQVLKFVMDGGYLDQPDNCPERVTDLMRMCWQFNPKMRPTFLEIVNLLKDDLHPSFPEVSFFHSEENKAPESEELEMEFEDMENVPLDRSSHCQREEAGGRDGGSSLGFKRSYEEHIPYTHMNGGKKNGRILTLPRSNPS

Row | Activity (% Control) [1] | Compound | EC50 (3T3 L1 fibroblasts)
1 | 94 % Control | O=C(Nc1cc(C(=O)Nc2cccc3cc(S(=O)(=O)O)ccc23)cc(C(=O)Nc2cccc3cc(S(=O)(=O)O)ccc23)c1)c1cccc(F)c1 [Compound 11, 5-({3-[(3-fluorophenyl)carbonylamino]-5-[N-(6-sulfonaphthyl)carbamoyl]phenyl}carbonylamino)naphthalene-2-sulfonic acid] | 20 µM
2 | 83.7 % Control | COc1cccc(C(=O)Nc2cc(C(=O)Nc3cccc4cc(S(=O)(=O)O)ccc34)cc(C(=O)Nc3cccc4cc(S(=O)(=O)O)ccc34)c2)c1 [Compound 13, 5-({3-[(3-methoxyphenyl)carbonylamino]-5-[N-(6-sulfonaphthyl)carbamoyl]phenyl}carbonylamino)naphthalene-2-sulfonic acid] | 200 µM
3 | 99 % Control | O=C(Nc1cc(C(=O)Nc2cccc3cc(S(=O)(=O)O)ccc23)cc(C(=O)Nc2cccc3cc(S(=O)(=O)O)ccc23)c1)c1ccc(Cl)cc1 [Compound 19, 5-({3-[(4-chlorophenyl)carbonylamino]-5-[N-(6-sulfonaphthyl)carbamoyl]phenyl}carbonylamino)naphthalene-2-sulfonic acid] | 150 µM
4 | 75.9 % Control | O=C(Nc1cc(C(=O)Nc2cccc3cc(S(=O)(=O)O)ccc23)cc(C(=O)Nc2cccc3cc(S(=O)(=O)O)ccc23)c1)c1ccccc1 [Compound 22, 5-({3-(phenylcarbonylamino)-5-[N-(6-sulfonaphthyl)carbamoyl]phenyl}carbonylamino)naphthalene-2-sulfonic acid] | 200 µM
5 | 86.8 % Control | CC(=O)Nc1cc(C(=O)Nc2cccc3cc(S(=O)(=O)O)ccc23)cc(C(=O)Nc2cccc3cc(S(=O)(=O)O)ccc23)c1 [Compound 23, 5-({3-(acetylamino)-5-[N-(6-sulfonaphthyl)carbamoyl]phenyl}carbonylamino)naphthalene-2-sulfonic acid] | > 250 µM
6 | 130.7 % Control | Cc1ccc(OCC(=O)Nc2cc(C(=O)Nc3cccc4cc(S(=O)(=O)O)ccc34)cc(C(=O)Nc3cccc4cc(S(=O)(=O)O)ccc34)c2)cc1 [Compound 40, 5-({3-[2-(4-methylphenoxy)acetylamino]-5-[N-(6-sulfonaphthyl)carbamoyl]phenyl}carbonylamino)naphthalene-2-sulfonic acid] | > 250 µM

Further lines, the compound ahead of its results:

Row | Compound | Activity (% Control) [1] | EC50 (3T3 L1 fibroblasts)
7 | O=C(Nc1cc(C(=O)Nc2cccc3cc(S(=O)(=O)O)ccc23)cc(C(=O)Nc2cccc3cc(S(=O)(=O)O)ccc23)c1)c1cccc([N+](=O)[O-])c1 [Compound 15, 5-({3-[(3-nitrophenyl)carbonylamino]-5-[N-(6-sulfonaphthyl)carbamoyl]phenyl}carbonylamino)naphthalene-2-sulfonic acid] | 88.2 % Control | 240 µM
8 | Cc1ccc(C(=O)Nc2cc(C(=O)Nc3cccc4cc(S(=O)(=O)O)ccc34)cc(C(=O)Nc3cccc4cc(S(=O)(=O)O)ccc34)c2)cc1[N+](=O)[O-] [Compound 16, 5-({3-[(3-nitro-4-methylphenyl)carbonylamino]-5-[N-(6-sulfonaphthyl)carbamoyl]phenyl}carbonylamino)naphthalene-2-sulfonic acid] | 99.9 % Control | 20 µM
9 | O=C(Nc1cccc2cc(S(=O)(=O)O)ccc12)c1cc(NC(=O)c2ccccc2C(=O)O)cc(C(=O)Nc2cccc3cc(S(=O)(=O)O)ccc23)c1 [Compound 17, 2-(N-{3,5-bis[N-(6-sulfonaphthyl)carbamoyl]phenyl}carbamoyl)benzoic acid] | 92.7 % Control | > 250 µM
10 | O=C(Nc1cccc2cc(S(=O)(=O)O)ccc12)c1cc(NC(=O)c2cc(Cl)c(Cl)cc2C(=O)O)cc(C(=O)Nc2cccc3cc(S(=O)(=O)O)ccc23)c1 [Compound 18, 2-(N-{3,5-bis[N-(6-sulfonaphthyl)carbamoyl]phenyl}carbamoyl)-4,5-dichlorobenzoic acid] | 95.3 % Control | > 250 µM
11 | O=C(Nc1cccc2cc(S(=O)(=O)O)ccc12)c1cc(NC(=O)c2cccc(O)c2C(=O)O)cc(C(=O)Nc2cccc3cc(S(=O)(=O)O)ccc23)c1 [Compound 21, 2-(N-{3,5-bis[N-(6-sulfonaphthyl)carbamoyl]phenyl}carbamoyl)-6-hydroxybenzoic acid] | 104.3 % Control | > 250 µM
12 | O=C(Nc1cccc2cc(S(=O)(=O)O)ccc12)c1cc(NC(=O)c2cnc3ccccc3n2)cc(C(=O)Nc2cccc3cc(S(=O)(=O)O)ccc23)c1 [Compound 39] | 96.9 % Control | 100 µM
